Assay results taken from patent US6638973B2, “Taxane formulations” (FSU Research Foundation, Inc., priority 2000, dated 2003).
pIC50: −log10 of the molar value.

Each molecule was assayed on HCT116 cells (assay: In vitro cytotoxicity measured by the cell colony formation assay). Details: HCT116 cells, 72 h drug incubation, colonies counted after 7 days; ID50 = drug concentration producing 50% inhibition of colony formation; read-out: IN VITRO ID 50 (nm) HCT116.
Assay type: cell-based
Outline: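 Colony-forming survival was scored 7 days after a 72 h, 37 °C compound exposure followed by washout into fresh medium.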

Structure (SMILES) | pIC50
CCC(C)(C)OC(=O)N[C@@H](c1ccco1)[C@@H](O)C(=O)O[C@H]1C[C@@]2(O)[C@@H](OC(=O)c3ccccc3)C3[C@](C)(C(=O)[C@H](O)C(=C1C)C2(C)C)[C@@H](OC(=O)Nc1ccccc1)C[C@H]1OC[C@@]31OC(C)=O (some centres unmarked) [Compound 6399] | > 8.00
C/C=C/C(=O)N[C@@H](c1ccco1)[C@@H](O)C(=O)O[C@H]1C[C@@]2(O)[C@@H](OC(=O)c3ccccc3)C3[C@](C)(C(=O)[C@H](O)C(=C1C)C2(C)C)[C@@H](OC(=O)Nc1ccccc1)C[C@H]1OC[C@@]31OC(C)=O (some centres unmarked) [Compound 5757] | > 8.00
CC(=O)O[C@@]12CO[C@@H]1C[C@H](OC(=O)NC1CCCCC1)[C@@]1(C)C(=O)[C@H](O)C3=C(C)[C@@H](OC(=O)[C@H](O)[C@@H](NC(=O)OC(C)(C)C)c4ccco4)C[C@@](O)([C@@H](OC(=O)c4ccccc4)C12)C3(C)C (some centres unmarked) [Compound 5373] | > 8.00

Same assay, conditions: HCT116 cells, 72 h incubation with drug, colonies counted after 7 days; ID50 = drug concentration producing 50% inhibition of colony formation; read-out: IN VITRO ID 50 (nm) HCT116

Structure (SMILES) | pIC50
COC(=O)O[C@H]1C[C@H]2OC[C@@]2(OC(C)=O)C2[C@H](OC(=O)c3ccccc3)[C@]3(O)C[C@H](OC(=O)[C@H](O)[C@@H](NC(=O)C=C(C)C)c4cccs4)C(C)=C([C@@H](O)C(=O)[C@@]21C)C3(C)C (some centres unmarked) [Compound 4244] | > 9.00
COC(=O)O[C@H]1C[C@H]2OC[C@@]2(OC(C)=O)C2[C@H](OC(=O)c3ccccc3)[C@]3(O)C[C@H](OC(=O)[C@H](O)[C@@H](NC(=O)c4ccccc4)c4cccs4)C(C)=C([C@@H](O)C(=O)[C@@]21C)C3(C)C (some centres unmarked) [Compound 4411] | > 9.00
C/C=C/C(=O)N[C@@H](c1ccsc1)[C@@H](O)C(=O)O[C@H]1C[C@@]2(O)[C@@H](OC(=O)c3ccccc3)C3[C@](C)(C(=O)[C@H](O)C(=C1C)C2(C)C)[C@@H](OC(=O)OC)C[C@H]1OC[C@@]31OC(C)=O (some centres unmarked) [Compound 4969] | > 9.00
COC(=O)O[C@H]1C(=O)[C@@]2(C)C([C@H](OC(=O)c3ccccc3)[C@]3(O)C[C@H](OC(=O)[C@H](O)[C@@H](NC(=O)OC(C)(C)C)C(C)C)C(C)=C1C3(C)C)[C@]1(OC(C)=O)CO[C@@H]1C[C@@H]2O (some centres unmarked) [Compound 2062] | > 8.00
CCOC(=O)O[C@H]1C[C@H]2OC[C@@]2(OC(C)=O)C2[C@H](OC(=O)c3ccccc3)[C@]3(O)C[C@H](OC(=O)[C@H](O)[C@H](C=C(C)C)NC(=O)OCC(C)C)C(C)=C([C@@H](O)C(=O)[C@@]21C)C3(C)C (some centres unmarked) [Compound 4688] | > 8.00
CCOC(=O)O[C@H]1C(=O)[C@@]2(C)C([C@H](OC(=O)c3ccccc3)[C@]3(O)C[C@H](OC(=O)[C@H](O)[C@H](C=C(C)C)NC(=O)OCC(C)C)C(C)=C1C3(C)C)[C@]1(OC(C)=O)CO[C@@H]1C[C@@H]2O (some centres unmarked) [Compound 5155] | > 8.00
COC(=O)O[C@H]1C(=O)[C@@]2(C)C([C@H](OC(=O)c3ccccc3)[C@]3(O)C[C@H](OC(=O)[C@H](O)[C@@H](NC(=O)OC(C)(C)C)c4ccco4)C(C)=C1C3(C)C)[C@]1(OC(C)=O)CO[C@@H]1C[C@@H]2O (some centres unmarked) [Compound 2666] | > 9.00
COC(=O)O[C@H]1C[C@H]2OC[C@@]2(OC(C)=O)C2[C@H](OC(=O)c3ccccc3)[C@]3(O)C[C@H](OC(=O)[C@H](O)[C@@H](NC(=O)OCC(C)C)c4ccsc4)C(C)=C([C@@H](O)C(=O)[C@@]21C)C3(C)C (some centres unmarked) [Compound 4674] | > 9.00
CCOC(=O)O[C@H]1C(=O)[C@@]2(C)C([C@H](OC(=O)c3ccccc3)[C@]3(O)C[C@H](OC(=O)[C@H](O)[C@@H](NC(=O)OCC(C)C)c4ccoc4)C(C)=C1C3(C)C)[C@]1(OC(C)=O)CO[C@@H]1C[C@@H]2O (some centres unmarked) [Compound 4636] | > 8.00

Same assay, conditions: HCT116 cells, colony formation, 72 h incubation with drug, colonies counted after 7 days; ID50 = drug concentration producing 50% inhibition of colony formation; read-out: IN VITRO ID 50 (nm) HCT116

Structure (SMILES) | pIC50
C/C=C/C(=O)N[C@@H](c1ccco1)[C@@H](O)C(=O)O[C@H]1C[C@@]2(O)[C@@H](OC(=O)c3ccccc3)C3[C@](C)(C(=O)[C@H](OC(=O)Nc4ccccc4)C(=C1C)C2(C)C)[C@@H](O)C[C@H]1OC[C@@]31OC(C)=O (some centres unmarked) [Compound 6024] | > 9.00

Same assay, conditions: HCT116 colony formation; 72 h drug incubation, colonies counted after 7 days; Example 5, C-7 ester/C-10 hydroxy taxanes; read-out: IN VITRO ID 50 (nm) HCT116

Structure (SMILES) | pIC50
C/C=C/C(=O)N[C@@H](c1ccco1)[C@@H](O)C(=O)O[C@H]1C[C@@]2(O)[C@@H](OC(=O)c3ccccc3)C3[C@](C)(C(=O)[C@H](O)C(=C1C)C2(C)C)[C@@H](OC(=O)C(C)C)C[C@H]1OC[C@@]31OC(C)=O (some centres unmarked) [Compound 6202] | > 9.00
CCC(=O)O[C@H]1C[C@H]2OC[C@@]2(OC(C)=O)C2[C@H](OC(=O)c3ccccc3)[C@]3(O)C[C@H](OC(=O)[C@H](O)[C@H](C=C(C)C)NC(=O)OC(C)(C)C)C(C)=C([C@@H](O)C(=O)[C@@]21C)C3(C)C (some centres unmarked) [Compound 1351] | > 9.00

Same assay, conditions: HCT116 colony formation; 72 h drug incubation, colonies counted after 7 days; Example 10, C-10 ester/C-7 hydroxy taxanes; read-out: IN VITRO ID 50 (nm) HCT116

Structure (SMILES) | pIC50
CCCC(=O)O[C@H]1C(=O)[C@@]2(C)C([C@H](OC(=O)c3ccccc3)[C@]3(O)C[C@H](OC(=O)[C@H](O)[C@@H](NC(=O)OCC(C)C)c4ccco4)C(C)=C1C3(C)C)[C@]1(OC(C)=O)CO[C@@H]1C[C@@H]2O (some centres unmarked) [Compound 3957] | > 8.00
C/C=C/C(=O)O[C@H]1C(=O)[C@@]2(C)C([C@H](OC(=O)c3ccccc3)[C@]3(O)C[C@H](OC(=O)[C@H](O)[C@@H](NC(=O)OC(C)(C)C)c4ccco4)C(C)=C1C3(C)C)[C@]1(OC(C)=O)CO[C@@H]1C[C@@H]2O (some centres unmarked) [Compound 2379] | > 9.00
C/C=C/C(=O)N[C@@H](c1ccoc1)[C@@H](O)C(=O)O[C@H]1C[C@@]2(O)[C@@H](OC(=O)c3ccccc3)C3[C@](C)(C(=O)[C@H](OC(=O)C4CC4)C(=C1C)C2(C)C)[C@@H](O)C[C@H]1OC[C@@]31OC(C)=O (some centres unmarked) [Compound 4944] | > 9.00
C/C=C/C(=O)O[C@H]1C(=O)[C@@]2(C)C([C@H](OC(=O)c3ccccc3)[C@]3(O)C[C@H](OC(=O)[C@H](O)[C@@H](NC(=O)OC(C)(C)C)c4ccccc4)C(C)=C1C3(C)C)[C@]1(OC(C)=O)CO[C@@H]1C[C@@H]2O (some centres unmarked) [Compound 2442] | > 9.00
CCCC(=O)O[C@H]1C(=O)[C@@]2(C)C([C@H](OC(=O)c3ccccc3)[C@]3(O)C[C@H](OC(=O)[C@H](O)[C@@H](NC(=O)c4cccs4)c4cccs4)C(C)=C1C3(C)C)[C@]1(OC(C)=O)CO[C@@H]1C[C@@H]2O (some centres unmarked) [Compound 3408] | > 9.00
CC(=O)O[C@@]12CO[C@@H]1C[C@H](O)[C@@]1(C)C(=O)[C@H](OC(=O)C3CC3)C3=C(C)[C@@H](OC(=O)[C@H](O)[C@@H](NC(=O)c4cccnc4)c4cccs4)C[C@@](O)([C@@H](OC(=O)c4ccccc4)C12)C3(C)C (some centres unmarked) [Compound 4112] | > 8.00
CC(=O)O[C@@]12CO[C@@H]1C[C@H](O)[C@@]1(C)C(=O)[C@H](OC(=O)C3CC3)C3=C(C)[C@@H](OC(=O)[C@H](O)[C@@H](NC(=O)OCC(C)C)c4ccco4)C[C@@](O)([C@@H](OC(=O)c4ccccc4)C12)C3(C)C (some centres unmarked) [Compound 3102] | > 9.00
CC(=O)O[C@@]12CO[C@@H]1C[C@H](O)[C@@]1(C)C(=O)[C@H](OC(=O)C=C(C)C)C3=C(C)[C@@H](OC(=O)[C@H](O)[C@@H](NC(=O)OC(C)(C)C)c4ccncc4)C[C@@](O)([C@@H](OC(=O)c4ccccc4)C12)C3(C)C (some centres unmarked) [Compound 2472] | > 9.00
CC(=O)O[C@@]12CO[C@@H]1C[C@H](O)[C@@]1(C)C(=O)[C@H](OC(=O)C=C(C)C)C3=C(C)[C@@H](OC(=O)[C@H](O)[C@@H](NC(=O)OC(C)(C)C)c4cccs4)C[C@@](O)([C@@H](OC(=O)c4ccccc4)C12)C3(C)C (some centres unmarked) [Compound 2503] | > 9.00
CC(=O)O[C@@]12CO[C@@H]1C[C@H](O)[C@@]1(C)C(=O)[C@H](OC(=O)C(C)C)C3=C(C)[C@@H](OC(=O)[C@H](O)[C@@H](NC(=O)OC(C)(C)C)C(C)C)C[C@@](O)([C@@H](OC(=O)c4ccccc4)C12)C3(C)C (some centres unmarked) [Compound 2306] | > 8.00
CC(=O)O[C@@]12CO[C@@H]1C[C@H](O)[C@@]1(C)C(=O)[C@H](OC(=O)C3CC3)C3=C(C)[C@@H](OC(=O)[C@H](O)[C@@H](NC(=O)OCC(C)C)c4ccoc4)C[C@@](O)([C@@H](OC(=O)c4ccccc4)C12)C3(C)C (some centres unmarked) [Compound 4665] | > 8.00
C/C=C/C(=O)N[C@@H](c1cccs1)[C@@H](O)C(=O)O[C@H]1C[C@@]2(O)[C@@H](OC(=O)c3ccccc3)C3[C@](C)(C(=O)[C@H](OC(=O)CC)C(=C1C)C2(C)C)[C@@H](O)C[C@H]1OC[C@@]31OC(C)=O (some centres unmarked) [Compound 3494] | > 9.00
CCC(=O)O[C@H]1C(=O)[C@@]2(C)C([C@H](OC(=O)c3ccccc3)[C@]3(O)C[C@H](OC(=O)[C@H](O)[C@H](C=C(C)C)NC(=O)OCC(C)C)C(C)=C1C3(C)C)[C@]1(OC(C)=O)CO[C@@H]1C[C@@H]2O (some centres unmarked) [Compound 5065] | > 8.00
CCC(=O)O[C@H]1C(=O)[C@@]2(C)C([C@H](OC(=O)c3ccccc3)[C@]3(O)C[C@H](OC(=O)[C@H](O)[C@@H](NC(=O)c4ccccc4)c4ccco4)C(C)=C1C3(C)C)[C@]1(OC(C)=O)CO[C@@H]1C[C@@H]2O (some centres unmarked) [Compound 0663] | > 9.00
CC(=O)O[C@@]12CO[C@@H]1C[C@H](O)[C@@]1(C)C(=O)[C@H](OC(=O)C(C)C)C3=C(C)[C@@H](OC(=O)[C@H](O)[C@@H](NC(=O)OC(C)(C)C)c4cccnc4)C[C@@](O)([C@@H](OC(=O)c4ccccc4)C12)C3(C)C (some centres unmarked) [Compound 2242] | > 8.00

Same assay, conditions: HCT116 colony formation; 72 h drug incubation, colonies counted after 7 days; Example 15, C-7 substituted acetate/C-10 hydroxy taxanes; read-out: IN VITRO ID 50 (nm) HCT116

Structure (SMILES) | pIC50
COCC(=O)O[C@H]1C[C@H]2OC[C@@]2(OC(C)=O)C2[C@H](OC(=O)c3ccccc3)[C@]3(O)C[C@H](OC(=O)[C@H](O)[C@@H](NC(=O)OC(C)(C)C)c4ccco4)C(C)=C([C@@H](O)C(=O)[C@@]21C)C3(C)C (some centres unmarked) [Compound 6326] | > 9.00
COCC(=O)O[C@H]1C[C@H]2OC[C@@]2(OC(C)=O)C2[C@H](OC(=O)c3ccccc3)[C@]3(O)C[C@H](OC(=O)[C@H](O)[C@@H](NC(=O)C=C(C)C)c4ccco4)C(C)=C([C@@H](O)C(=O)[C@@]21C)C3(C)C (some centres unmarked) [Compound 5474] | > 9.00
